According to publication PMC7801115, “Preclinical in vitro screening of newly synthesised amidino substituted benzimidazoles and benzothiazoles” (Journal of Enzyme Inhibition and Medicinal Chemistry, 2021):

Columns and labels:
[1] = test system: P-glycoprotein (human MDR1); assay: MDCKII-MDR1 permeability and P-glycoprotein substrate assay; type: in vitro ADME, canine cells over-expressing human MDR1; settings: dog; for efflux ratio at 60 min, 10 µM: MDCK-MDR1, pH 7.4, without P-gp inhibitor; for Papp A→B at 60 min, 10 µM / Papp B→A at 60 min, 10 µM: MDCK-MDR1, pH 7.4, without P-gp inhibitor; for Papp A→B at 60 min, 10 µM: read-out: MDCKII-MDR1 Papp(A2B); for Papp B→A at 60 min, 10 µM: read-out: MDCKII-MDR1 Papp(B2A)
Method: Permeability and P-glycoprotein substrate assessment was done on MDCKII-hMDR1, Madin-Darby canine epithelial cells over-expressing human MDR1 gene, coding for P-glycoprotein.
Cells were prepared for transport studies by seeding on 96-well cell culture inserts (Millipore, MA, USA) in a concentration of 0.25 × 10^6 cells per ml. The cells were fed with fresh medium 24 h post seeding and cultured to confluence for 3 days before use. On the day of experiment, the cell monolayers were washed and equilibrated with transport medium (DPBS, pH 7.4 containing 1% DMSO) with or without P-gp specific inhibitor, elacridar (2 µM) for 45 min (37 °C, 5% CO2, 95% humidity). Test compound solution consisted of test substance (10 μM) in D-PBS medium containing lucifer yellow (100 μM) and 1% DMSO. Transport assays were conducted in apical to basolateral (A2B) and basolateral to apical (B2A) directions, respectively. Monolayers were incubated with the compound solution for 60 min at 37 °C under gentle agitation. Apical and basolateral compartments were sampled at the end of the transport experiment, while donor solutions were also sampled at the beginning of the experiment in order to determine initial concentration. Test substance concentrations in both compartments were determined by LC-MS/MS. There were several controls used in the assay: 1) amprenavir (0.5 μM) served as a low permeable control, being also a P-gp substrate; 2) diclofenac (10 μM) was used as a high permeable control; 3) Lucifer yellow, a fluorescent marker for the paracellular membrane transport, was used as a control of cell monolayer integrity.
All ADME samples were analysed on a Sciex API 4000 or Sciex API4500 Triple Quadrupole Mass Spectrometer (Sciex, Framingham, MA, USA) coupled to a UHPLC System (Shimadzu Nexera X2; Shimadzu, Kyoto, Japan). Samples were injected onto an UPLC column (HALO2 C18, 2.1 × 20 mm, 2 µm or Phenomenex Luna Omega Polar C18, 30 × 2.1 mm, 1.6 µm) and eluted with a gradient at temperature of 50 °C. The mobile phase was composed of acetonitrile (with 0.1% formic acid) and 0.1% formic acid in deionised water. A total run time was 1 or 1.5 min, with the flow rate of 0.7 ml/min (under gradient conditions). A positive ion mode with turbo spray, an ion source temperature of 500 °C and a dwell time of 150 ms were utilised for mass spectrometric detection. Multiple reaction monitoring (MRM) was used at the specific transitions for each compound/control tested: compound 5c: 361.9 → 304.9; compound 5d: 344.8 → 287.9; compound 5e: 349.8 → 292.9; compound 5 g: 350.8 → 293.9; compound 5 h: 344.0 → 286.9; compound 6a: 276.9 → 220.0; compound 5 b: 319.0 → 262.0; compound 6 b: 302.1 → 245.1; compound 6c: 344.9 → 288.0; compound 6d: 333.0 → 276.0; compound 6e: 316.1 → 259.0; compound 6f: 327.1 → 270.0; compound 6 g: 377.1 → 320.1; testosterone: 289.3→ 97.1; propranolol: 260.1 → 182.8; caffeine: 195.2 → 138.1; acebutolol: 337.2 → 116.2, nicardipine: 480.2 → 315.0; verapamil: 455.4 → 165.1; amprenavir: 506.2 → 245.4; diclofenac: 296.1 → 213.7 or 296.2 → 215.3; eucatropine: 292.2 → 109.1; benfluorex: 352.1 → 230.3, and warfarin: 309.2 → 163.2

HCC827 = assay: Cell viability assay, 3D hanging drop cell culture (CellTiter GLO 3D); type: cell-based; settings: Homo sapiens; HCC827, 3D hanging drop cell culture, 72 h; ±SD, N = 2; read-out: IC50 antitumor activity HCC827 3D
Method: (§1) Compounds are diluted 1:3. 500 nL (for 2 D cell culture) or 400 nL (for 3 D cell culture) of compound were transferred from mother plate to test plate by using Mosquito (TTP labtech). DMSO percentage in test concentrations was 0.5 − 1.0%. Starting concentration of the test compounds and standard compound doxorubicin was 50 µM (2 D cell culture) or 100 µM (3 D cell culture).
(§2) Cells were grown in 96 well Perfecta 3 D hanging drop plates 5000 cell/well for 4 days until spheres were formed (and checked under the microscope). After sphere formation cells were treated with compounds followed by 72 h incubation. Cell viability assay was performed according to the manufacturer’s instruction, using CellTiter GLO 3 D for 3 D cell culture (Promega); cell incubation was 5 min on the shaker followed by 25 min incubation in the dark. Plates were read using PE EnVision luminescence.
(§3) Calculation of IC50 data, curves and QC analysis is made by using Excel tools and GraphPadPrism software (La Jolla, CA), v. […] QC criteria parameters (Z', S:B, R2, HillSlope) were checked for every IC50 curve.

NCI-H358 [2] = assay: as above; type: cell-based; settings: Homo sapiens; NCI-H358, 3D hanging drop cell culture, 72 h; ±SD, N = 2; read-out: IC50 antitumor activity NCI-H358 3D
Method: as §1, §2, §3

A549 [3] = assay: as above; type: cell-based; settings: Homo sapiens; A549, 3D hanging drop cell culture, 72 h; ±SD, N = 2; read-out: IC50 antitumor activity A549 3D
Method: as §1, §2, §3

NCI-H358 [4] = assay: BrdU proliferation assay, 3D cell culture; type: cell-based; settings: Homo sapiens, NCI-H358, 3D cell culture, ±SD, N = 2
Method: as §2, with “luminescence. The results for each of tested compounds are reported as growth percentages from two independent concentrations curves compared with the untreated control cells after drug exposure.” for “luminescence.”
(§4) Proliferation assay was performed using Cell Proliferation ELISA, BrdU (Sigma, St. Louis, MO, USA). Briefly, 48 h hours after compound addition, 10 µM of BrdU was added to each well and incubated for following 24 h. After incubation, single cell suspension was made for 3 D cell culture in the new 96 well plate. Plates were centrifuged and supernatants were removed from each plate (for 2 D and 3 D cell culture) followed by 60 min incubation at 60° C. The rest of the proliferation assay was performed according to the manufacturer instructions.
(§5) Calculation of IC50 data, curves and QC analysis is made by using Excel tools and GraphPadPrism software (La Jolla, CA), v. 5.03. In brief, individual concentration–effect curves are generated by plotting the logarithm of the tested concentration of tested compounds (X) versus corresponding percent inhibition values (Y) using least squares (ordinary) fit. […] QC criteria parameters (Z', S:B, R2, HillSlope) were checked for every IC50 curve.

A549 [5] = assay: BrdU proliferation assay, 3D cell culture; type: cell-based; settings: Homo sapiens, A549, 3D cell culture, ±SD, N = 2
Method: as §2, with “luminescence. The results for each of tested compounds are reported as growth percentages from two independent concentrations curves compared with the untreated control cells after drug exposure.” for “luminescence.”
as §4, §5

efflux ratio at 60 min, 10 µM [1] | Papp A→B at 60 min, 10 µM [1] | Papp B→A at 60 min, 10 µM [1] | IC50 (HCC827) | IC50 (NCI-H358 [2]) | IC50 (A549 [3]) | IC50 (NCI-H358 [4]) | IC50 (A549 [5]) | SMILES
35.4 | 0.59 ×10⁻⁶ cm/s | 20.5 ×10⁻⁶ cm/s | > 100 µM | > 100 µM | 60 ± 1.44 µM | > 100 µM | 87 ± 0.11 µM | Cl.N#Cc1ccc(-c2nc3ccc(C4=NCCCN4)cc3s2)cc1 [Compound 5b, 2–(4-Cyanophenyl)-6–(3,4,5,6-tetrahydropyrimidin-1-ium-2-yl)benzothiazole chloride]
> 200 | < 0.1 ×10⁻⁶ cm/s | 21.5 ×10⁻⁶ cm/s | 12 ± 0.16 µM | 34 ± 0.7 µM | 16 ± 0.65 µM | 4.31 µM | 13 ± 0.78 µM | Cl.FC(F)(F)c1ccc(-c2nc3ccc(C4=NCCCN4)cc3s2)cc1 [Compound 5c, 2–(4-Trifluoromethylphenyl)-6–(3,4,5,6-tetrahydropyrimidin-1-ium-2-yl)benzothiazole chloride]
> 158 | < 0.1 ×10⁻⁶ cm/s | 15.8 ×10⁻⁶ cm/s | > 100 µM | 40 ± 4.89 µM | 16 ± 1.3 µM | 13 ± 1.65 µM | 16 ± 1.3 µM | Cl.c1ccc2nc(-c3nc4ccc(C5=NCCCN5)cc4s3)ccc2c1 [Compound 5d, 2-(Quinoline-2-yl)-6–(3,4,5,6-tetrahydropyrimidin-1-ium-2-yl)benzothiazole chloride]
> 17 | < 0.1 ×10⁻⁶ cm/s | 16.5 ×10⁻⁶ cm/s | 17 ± 0.93 µM | 31 ± 0.05 µM | 15 ± 1.35 µM | 7 ± 2.33 µM | 14 ± 3.07 µM | Cl.c1ccc2sc(-c3nc4ccc(C5=NCCCN5)cc4s3)nc2c1 [Compound 5g, 2-(Benzothiazole-2-yl)-6–(3,4,5,6-tetrahydropyrimidin-1-ium-2-yl)benzothiazole chloride]
> 77 | < 0.1 ×10⁻⁶ cm/s | 7.7 ×10⁻⁶ cm/s | 12 ± 0.26 µM | 31 ± 0.33 µM | 14 ± 0.38 µM | 1 ± 0.81 µM | 14 ± 0.06 µM | Cl.c1ccc2cc(-c3nc4ccc(C5=NCCCN5)cc4s3)ccc2c1 [Compound 5h, 2-(Naphthalene-2-yl)-6–(3,4,5,6-tetrahydropyrimidin-1-ium-2-yl)benzothiazole chloride]
< 2 | 0.92 ×10⁻⁶ cm/s | 1.02 ×10⁻⁶ cm/s | > 100 µM | > 100 µM | > 100 µM | > 100 µM | > 100 µM | N#Cc1ccc(-c2nc3cc(C4=NCCCN4)ccc3[nH]2)cc1 [Compound 6b, 2–(4-Cyanophenyl)-5(6)–(3,4,5,6-tetrahydropyrimidin-1-ium-2-yl)benzimidazole chloride]

More lines, now with the values behind:

SMILES | efflux ratio at 60 min, 10 µM [1] | Papp A→B at 60 min, 10 µM [1] | Papp B→A at 60 min, 10 µM [1] | IC50 (HCC827) | IC50 (NCI-H358 [2]) | IC50 (A549 [3]) | IC50 (NCI-H358 [4]) | IC50 (A549 [5])
Cl.c1ccc2sc(-c3nc4ccc(C5=NCCCN5)cc4s3)cc2c1 [Compound 5e, 2-(Benzo[b]thiophen-2-yl)-6–(3,4,5,6-tetrahydropyrimidin-1-ium-2-yl)benzothiazole chloride] | > 78 | < 0.1 ×10⁻⁶ cm/s | 7.6 ×10⁻⁶ cm/s | 22 ± 9.45 µM | 34 ± 0.16 µM | 23 ± 6.24 µM | 5 ± 0.81 µM | 23 ± 6.24 µM
c1ccc(-c2nc3cc(C4=NCCCN4)ccc3[nH]2)cc1 [Compound 6a, 2-Phenyl-5(6)–(3,4,5,6-tetrahydropyrimidin-1-ium-2-yl)benzimidazole chloride] | 3.7 | 0.4 ×10⁻⁶ cm/s | 1.4 ×10⁻⁶ cm/s | 9 ± 3.05 µM | 17 ± 1.94 µM | 13 ± 1.46 µM | 3 ± 1.41 µM | 12 ± 0.28 µM
FC(F)(F)c1ccc(-c2nc3cc(C4=NCCCN4)ccc3[nH]2)cc1 [Compound 6c, 2–(4-Trifluoromethylphenyl)-5(6)–(3,4,5,6-tetrahydropyrimidin-1-ium-2-yl)benzimidazole chloride] | 2.82 | 0.69 ×10⁻⁶ cm/s | 1.93 ×10⁻⁶ cm/s | > 100 µM | > 100 µM | > 100 µM | > 100 µM | > 100 µM
c1ccc2sc(-c3nc4cc(C5=NCCCN5)ccc4[nH]3)cc2c1 [Compound 6d, 2-(Benzo[b]thiophen-2-yl)-5(6)–(3,4,5,6-tetrahydropyrimidin-1-ium-2-yl)benzimidazole chloride] | 7.75 | 0.11 ×10⁻⁶ cm/s | 0.86 ×10⁻⁶ cm/s | > 100 µM | > 100 µM | > 100 µM | > 100 µM | > 100 µM
c1ccc2c(-c3nc4ccc(C5=NCCCN5)cc4[nH]3)c[nH]c2c1 [Compound 6e, 2-(1H-Indol-3-yl)-5(6)–(3,4,5,6-tetrahydropyrimidin-1-ium-2-yl)benzimidazole chloride] | 3.89 | 0.57 ×10⁻⁶ cm/s | 2.17 ×10⁻⁶ cm/s | > 100 µM | > 100 µM | > 100 µM | > 100 µM | > 100 µM
c1ccc2cc(-c3nc4cc(C5=NCCCN5)ccc4[nH]3)ccc2c1 [Compound 6f, 2-(Naphthalene-2-yl)-5(6)–(3,4,5,6-tetrahydropyrimidin-1-ium-2-yl)benzimidazole chloride] | 3.23 | 0.78 ×10⁻⁶ cm/s | 2.49 ×10⁻⁶ cm/s | > 100 µM | > 100 µM | > 100 µM | > 100 µM | > 100 µM
